These results are taken from patent publication US9879013B2, “Purinone derivative” (ONO PHARMACEUTICAL CO., LTD., priority 2010, dated 2018).

Data set [1] concerns Human liver cells. As to the kind of experiment: Ability to reduce the mitochondrial membrane potential in cultured human hepatoma cells (JC-1). It counts as cell-based. Conditions: JC-1, exposure for 24 hours, read-out: Ability to lower the mitochondrial membrane potential (IC50 (μM)). An excerpt: (§1) Measurement of the Cytotoxicity and Ability to Reduce the Mitochondrial Membrane Potential in Cultured Human Hepatoma Cells
Tissue that maintains an aerobic equilibrium, e.g., the kidneys and heart, and tissue that is exposed to high drug concentrations and carries out drug metabolism, e.g., the liver, are known to be sensitive to mitochondrial dysfunction (Drug Discovery Today, 12 (17-18), 777-785, 2007). The reduction or extinction of the mitochondrial membrane potential by a drug is caused by the direct inhibition of the electron transport system, decoupling of electron transport from ATP synthase, or the opening of a mitochondrial membrane permeability transition pore. As a consequence, measurement of the mitochondrial membrane potential of liver cells can provide a parameter for hepatotoxicity.
(§2) Human liver cells were seeded into a collagen-coated 96-well plate at a cell density of 30,000 cells/well and incubation was carried out overnight in an incubator at 37° C. in 5% CO2-95% air. The cultured cells were stained for 1 hour with 5,5′,6,6′-tetrahydro-1,1′,3,3′-tetramethyl-benzamidazolocarbocyanine iodide (JC-1) followed by treatment with the test compound. The test compound was dissolved in DMSO and then diluted with the liquid culture medium Hepatocyte Culture Medium (HCM) and added to the cells. The test compound treatment concentrations were 0, 6.25, 12.5, 25, 50, 100, 200, and 400 μmol/L. After exposure to the test compound for 24 hours, measurement was performed with a SpectraMax plate reader (Molecular Devices, LLC) at an excitation wavelength of 485 nm and a fluorescence wavelength of 538 nm and an excitation wavelength of 544 nm and a fluorescence wavelength of 590 nm. The membrane potential was determined by the ratio between the 544 nm/590 nm measurement value and the 485 nm/538 nm measurement value. After this, the ATP concentration in the cells was measured using a Celltiter Glo luminescent assay kit (Promega Corporation) in order to evaluate the cell toxicity of the test compound. The cells were lysed by the assay buffer provided with the measurement kit and the concentration of the ATP released from the cells was measured using the luciferin-luciferase enzyme activity as the index. The emission was measured using a SpectraMax plate reader. […] The ability to lower the mitochondrial membrane potential of the test compounds and the cytotoxicity of the test compounds are given in Table 3 below.

The target of a further data set is Fyn (Homo sapiens (Human), UniProt P06241). As to the kind of experiment: Fyn inhibitory activity, selectivity for Btk (Z'-LYTE kinase assay). Format: biochemical. The conditions noted are these: ratio of the IC50 values of the individual kinases. On the procedure: (§3) The inhibitory activity for other kinases (for example, Lck, Fyn, and LynA (all from Invitrogen Corporation) was measured in the same manner as described above using the particular kinase in place of the Btk.

For another data set, the target named is LynA (Homo sapiens (Human), UniProt P07948). Kind of data set: LynA inhibitory activity, selectivity for Btk (Z'-LYTE kinase assay). It counts as biochemical. Conditions: ratio of the IC50 values of the individual kinases. On the procedure:
as §3

Data set [2] relates to T cells (CD3-positive CD20-negative cells) of human PBMC. As to the kind of experiment: T cell activation using human PBMC (CD69-positive signal, FACS). Conditions: anti-CD3/CD28 antibody beads, 16 hours. It counts as cell-based. The protocol: Measurement of B Cell Activation or T Cell Activation Using Human PBMC
A 10 mmol/L solution of the test compound in DMSO was dispensed into a 96-well plate (Nunc) and a 5× dilution series was prepared using DMSO. A 100× concentration test compound dilution solution was prepared by an additional 10× dilution with RPMI1640 medium (contained 10% HI-FBS, 1% penicillin). Human peripheral blood mononuclear cells (PBMC) were diluted with the medium to provide a density of 2×10^6 cells/mL. 396 μL of the cell suspension was added to a 96-well plate into which 4 μL of the 100× concentration test compound dilution solution or the solvent (10% DMSO) had already been introduced and incubation was performed for 10 minutes at 37° C. and 5% CO2. 10 μL of an anti-IgM antibody (Southern Biotech)/IL-4 (R & D Systems) solution or an anti-CD3/CD28 antibody bead suspension (Invitrogen Corporation) was added to a 96-well plate and 90 μL of the cell suspension prepared as described above was also added (final concentrations: anti-IgM antibody=1 μg/mL, IL-4=3 ng/mL, and anti-CD3/CD28 antibody beads=2×10^6 beads/mL). 10 μL of the medium was added to the unstimulated sample wells in place of these stimulating substances, and standing at 37° C. and 5% CO2 was again performed. Incubation was carried out for 16 hours in the case of the evaluation of T cell activation and for 22 hours in the case of the evaluation of B cell activation. 100 μL Cytofix Buffer (BD Biosciences) was added; holding for 15 minutes at 37° C. was performed; centrifugation for 10 minutes at 1500 rpm was carried out; and the supernatant was removed. 200 μL of Perm buffer II (BD Biosciences) at −20° C. was added; holding for 30 minutes on ice was performed; centrifugation for 10 minutes at 1500 rpm was carried out; and the supernatant was removed. 0.5 mL Stain buffer (BD Biosciences) was added and centrifugation was carried out for 10 minutes at 1500 rpm. 100 μL of a mixed antibody solution was added and incubation was performed for 30 minutes on ice in the dark. The antibody was the 10× dilution with Stain Buffer of the 1:1:1 mixture of PerCP-labeled anti-CD3 antibody (BD Biosciences), AF488-labeled anti-CD20 antibody (BD Biosciences), and PE-labeled anti-CD69 antibody (BD Biosciences). 0.4 mL Stain Buffer was added and the supernatant was removed. […] The CD69-positive signal (average fluorescence intensity) of the CD20-positive CD3-negative cells (B cells) or CD3-positive CD20-negative cells (T cells) was measured. After subtracting the value for the unstimulated sample, the % inhibition with reference to the value for the stimulated control sample was determined. The % inhibition was graphically plotted using Prism (ver. 5.01 J, GraphPad Software) and the IC50 value was determined.

The test system of data set [3] is Human liver cells. Kind of data set: Cytotoxicity in cultured human hepatoma cells (ATP concentration, Celltiter Glo). The conditions noted are these: 50% decline in ATP concentration, exposure for 24 hours, read-out: Toxicity for human liver cells (IC50 (μM)). Format: cell-based. On the procedure:
as §1, §2
On the technique in general: ATP-based viability assays read luminescence as a measure of living cells.

A further data set has as its target Human CYP2C8 (Homo sapiens (Human), UniProt P10632). As to the kind of experiment: Inhibitory action on human CYP2C8. Format: in vitro ADME. On the procedure: Measurement of the Inhibitory Activity on Drug-Metabolizing Enzymes (Inhibitory Action on Human CYP2C8 and Human CYP2C19)
The reaction was carried out in a 96-well plate. […] 100 μL of this reaction mixture and 50 μL of the test compound prepared as described above and the positive control solution prepared as described above were dispensed into each well and pre-incubation was carried out at 10 minutes for 37° C. The reaction was started by the addition of 50 μL NADPH solution (final concentration=1 mmol/L) and incubation was carried out for 30 minutes at 37° C.

The nature of data set [4]: Stability in the human liver microsome. Conditions: 0.5 mg/mL microsomes, NADPH, 15 minutes at 37° C. For orientation: Microsomes from liver hold many membrane-bound enzymes, among them those of drug oxidation.
Protocol: Evaluation of the Stability in the Rat and Human Liver Microsome
A 0.25 mmol/L solution was prepared by diluting the test compound (10 mmol/L DMSO solution, 5 μL) with an aqueous 50% acetonitrile solution (195 μL).
20 μL was collected immediately after the start and the reaction was stopped by the addition to 180 μL of acetonitrile that contained an internal standard (warfarin). 20 μL of this solution was stirred with 180 μL of an aqueous 50% acetonitrile solution on a filter plate for protein depletion followed by suction filtration, and the filtrate was used as the standard sample.
The previously indicated reaction solution was incubated for 15 minutes at 37° C., and 20 μL was then added to 180 μL cold acetonitrile (contained the internal standard warfarin) to stop the reaction. 20 μL of this was stirred with 180 μL of an aqueous 50% acetonitrile solution on a filter plate for protein depletion followed by suction filtration, and the filtrate was used as the standard sample.

SMILES strings stand for the structures. pIC50: −log10 of the molar value. Where only a bound is given, the exact number is not on record here.

Chain of Fyn (P06241 whole entry): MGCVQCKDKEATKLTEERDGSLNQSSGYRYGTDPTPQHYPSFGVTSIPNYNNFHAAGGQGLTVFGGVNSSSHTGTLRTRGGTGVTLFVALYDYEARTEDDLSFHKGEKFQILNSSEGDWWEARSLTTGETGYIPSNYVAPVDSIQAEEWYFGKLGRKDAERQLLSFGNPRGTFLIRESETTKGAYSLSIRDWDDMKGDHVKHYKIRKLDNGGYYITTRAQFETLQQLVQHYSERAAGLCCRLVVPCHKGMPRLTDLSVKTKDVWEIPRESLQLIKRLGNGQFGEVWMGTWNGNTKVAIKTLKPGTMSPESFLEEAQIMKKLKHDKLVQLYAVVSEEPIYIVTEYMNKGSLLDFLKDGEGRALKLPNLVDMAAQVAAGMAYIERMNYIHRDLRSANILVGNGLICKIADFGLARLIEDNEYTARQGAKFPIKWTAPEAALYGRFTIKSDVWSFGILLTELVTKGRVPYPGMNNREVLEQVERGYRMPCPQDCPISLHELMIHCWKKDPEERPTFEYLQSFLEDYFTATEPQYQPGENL
Chain of LynA (P07948 whole entry): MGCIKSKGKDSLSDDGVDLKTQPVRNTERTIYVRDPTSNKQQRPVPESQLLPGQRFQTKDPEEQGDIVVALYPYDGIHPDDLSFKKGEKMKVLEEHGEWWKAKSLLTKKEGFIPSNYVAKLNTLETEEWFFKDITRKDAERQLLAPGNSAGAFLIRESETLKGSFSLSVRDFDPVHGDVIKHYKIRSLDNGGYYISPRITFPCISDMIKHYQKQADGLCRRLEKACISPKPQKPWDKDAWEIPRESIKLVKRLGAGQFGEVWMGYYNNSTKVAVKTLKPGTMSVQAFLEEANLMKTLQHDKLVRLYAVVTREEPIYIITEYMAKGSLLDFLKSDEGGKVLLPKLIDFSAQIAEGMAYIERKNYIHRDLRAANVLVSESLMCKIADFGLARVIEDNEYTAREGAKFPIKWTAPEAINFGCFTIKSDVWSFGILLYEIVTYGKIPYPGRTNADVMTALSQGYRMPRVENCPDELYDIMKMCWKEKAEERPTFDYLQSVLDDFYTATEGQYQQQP
Chain of Human CYP2C8 (P10632 whole entry): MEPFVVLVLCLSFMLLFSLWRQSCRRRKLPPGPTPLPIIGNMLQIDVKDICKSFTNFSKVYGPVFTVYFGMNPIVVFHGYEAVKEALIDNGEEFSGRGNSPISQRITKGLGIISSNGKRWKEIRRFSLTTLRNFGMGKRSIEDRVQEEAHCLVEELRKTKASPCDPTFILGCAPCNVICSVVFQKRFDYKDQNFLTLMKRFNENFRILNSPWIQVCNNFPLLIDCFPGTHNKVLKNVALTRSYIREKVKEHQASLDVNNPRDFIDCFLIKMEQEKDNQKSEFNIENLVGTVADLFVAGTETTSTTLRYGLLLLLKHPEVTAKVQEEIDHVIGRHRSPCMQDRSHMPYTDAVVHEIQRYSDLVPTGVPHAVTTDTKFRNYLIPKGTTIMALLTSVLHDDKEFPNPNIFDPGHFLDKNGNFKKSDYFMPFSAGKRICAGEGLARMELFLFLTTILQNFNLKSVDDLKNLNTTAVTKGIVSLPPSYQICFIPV

As to `C=CC(=O)N1CC(n2c(=O)n(-c3ccc(Oc4ccccc4)cc3)c3c(N)ncnc32)C1` [Example 8, 9-(1-acryloyl-3-azetidinyl)-6-amino-7-(4-phenoxyphenyl)-7,9-dihydro-8H-purin-8-one], the IC50 in the data set on Human liver cells [1] was 324 µM; in the data set on Human liver cells [3], 290 µM. In addition, the “Fyn[IC50]/Btk[IC50]” value on Fyn is recorded as 453. For the same molecule, the “LynA[IC50]/Btk[IC50]” value on LynA came out at 459. The pIC50 (in data set [2]; on Human CYP2C8) was under 5.00 throughout. In data set [4], the “Residual ratio (%) in the human liver microsome” value is on record as 87.0%.

The term IC50 denotes the point on the concentration scale where inhibition reaches its midpoint. Broadly, the pIC50 is the IC50 on a negative log10 scale, so that one unit is a factor of ten. A low value points to a high IC50.
